In one data set the test system is MCF-10A neoT cell. Nature of the data set: DQ-collagen IV degradation by fluorescence microscopy. The data set is classed as cell-based. Conditions: 10 µM, 24 h. As for the experimental part: 5-nitro-8-hydroxyquinoline was also tested for the ability to inhibit intracellular and extracellular degradation of DQ-collagen IV. First, inhibitory effect was observed using fluorescence microscopy. Wells of precooled Lab-Tek™ Chambered Coverglass (Nalge Nunc International) were coated with 25 µg/ml of the quenched fluorescent substrate DQ-collagen IV suspended in 40 µl of 100 % Matrigel for 10 min at 4°C. DQ-collagen IV/Matrigel matrix was allowed to polymerize for 40 min at 37°C. 400 µl of MCF-10A neoT cell suspension (1.5x10^5/ml) in growth medium containing 2 % Matrigel and 10 µM of 5-nitro-8-hydroxyquinoline were plated onto gelled Matrigel. After 24 h incubation at 37°C with 5 % CO2 the samples were monitored for fluorescent degradation products using Olympus IX 81 motorized inverted microscope and CellR software. CA-074 and CA-074Me were used as positive controls.

The test system of data set [1] is MCF-10A neoT cells. The data set can be described thus: Three-dimensional in vitro invasion model based on spheroids. The note with it: 10 µM, Matrigel. Format: cell-based. As for the experimental part:
The ability of 5-nitro-8-hydroxyquinoline to inhibit tumour cell invasion was also tested in a three-dimensional in vitro invasion model based on spheroids. Multicellular tumour spheroids were prepared according to hanging drop method (Kelm JM, Timmins NE, Brown CJ, Fussenegger M, Nielsen LK: Method for generation of homogeneous multicellular tumour spheroids applicable to a wide variety of cell types. Biotechnol Bioeng 2003, 83:173-80.). Drops (20 µl) of MCF-10A neoT cell suspension ([…]) were placed onto the lids of 10 cm dishes which were inverted over dishes containing 10 ml of PBS. Upon inversion of the tray the cells accumulated at the free liquid-air interface in this way forming spheroids after sufficient sedimentation time, in our case 6 days. Wells of a 24-well plate were filled with 400 µl of Matrigel (5mg/ml) containing the 5-nitro-8-hydroxyquinoline at the final concentration of 10 µM. After 15 min incubation at 37 °C 1 ml of medium with the test compound (10 µM) was placed on top of Matrigel. Spheroids were then carefully plated into the wells and incubated at 37 °C in a humidified atmosphere containing 5 % CO2. Images of spheroids were obtained using an Olympus IX 81 motorized inverted microscope and CellR software.

The target in a further data set is cathepsin L (Homo sapiens, UniProt P07711). Nature of the data set: Selectivity: Ki against cathepsin L, substrate Z-FR-AMC. The data set is classed as biochemical. The procedure:
Activation buffer used with cathepsin L was 100 mM acetate buffer, pH 5.5 with 0.1 % PEG, 5 mM DTT and 1.5 mM EDTA and with cathepsin H was 100 mM phosphate buffer, pH 6.8 with 0.1 % PEG, 5 mM DTT and 1.5 mM EDTA. Table II. Ki values for 5-nitro-8-hydroxyquinoline determined against cathepsins B, L and H.

Data set [2] deals with MCF-10A neoT cells. Nature of the data set: Intracellular DQ-collagen IV degradation by flow cytometry. Conditions: 50 µM, shift in fluorescence intensity. Format: cell-based. As for the experimental part:
Inhibition of intracellular DQ-collagen IV degradation was observed by flow cytometry by a shift in fluorescence intensity. 5 × 10^4 MCF-10A neoT cells in complete medium were plated into the wells of a 24-well plate and allowed to attach over night. Afterwards, the medium was replaced with 500 µl of serum free medium with 5-nitro-8-hydroxyquinoline, CA-074 or CA-074Me (50 µM). After 2 h incubation the medium was again replaced with serum free medium containing inhibitors (50 µM) and DQ-collagen IV (5 µg/ml). DMSO was used as a control. For the experiment only viable cells were selected using propidium iodide. The measurements were performed on a FACS Calibur instrument (Beckton Dickinson, Inc.).

Data set [3] has as its system MCF-10A neoT cells. Nature of the data set: MTS cytotoxicity assay. The data set is classed as cell-based. The note with it: 10 µM, 24 h incubation. The procedure:
A MTS assay was used to assess the cytotoxic effect of 5-nitro-8-hydroxyquinoline on MCF-10A neoT cells. 5 × 10^4 cells in 100 µl of medium were added to a single well of a 96-microtiter plate to which a 100 µl of 5-nitro-8-hydroxyquinoline solution (twice the final concentration) was added. After 24 h incubation the cells were washed and the medium was replaced with 100 µl of fresh medium to which a 20 µl of MTS was added. After 2 h incubation the absorbance was measured at 490 nm. The experiment was performed in quadruplicates and DMSO was used as control.

The target in another data set is Cathepsin B (Homo sapiens, UniProt P07858). Nature of the data set: Cathepsin B exopeptidase activity, enzyme kinetics with substrate Abz-GIVRAK(Dnp)-OH. Format: biochemical. As for the experimental part:
The effect of 5-nitro-8-hydroxyquinoline on cathepsin B exopeptidase activity was assessed with an exopeptidase substrate Abz-GIVRAK(Dnp)-OH. 5 µl of Abz-GIVRAK(Dnp)-OH (final concentration 1, 3 and 6 µM) and 5 µl of 5-nitro-8-hydroxyquinoline at increasing concentrations were added to wells of a black microplate. 90 µl of human recombinant cathepsin B was then added to a final concentration of 0.25 nM in activation buffer (60 mM acetate buffer, pH 5.0 with 0.1 % PEG, 5 mM DTT and 1.5 mM EDTA). All assay mixtures contained a constant amount of DMSO, i.e. 5 %.
Formation of fluorescent degradation product was continuously monitored at 320 nm ± 20 nm excitation and 420 nm ± 10 nm emission wavelengths on Tecan Safire^2™ at 37°C. Mechanism and the constant of inhibition (Ki) of cathepsin B exopeptidase activity were determined using the graphical method according to Cornish-Bowden (Cornish-Bowden A: A Simple Graphical Method for Determining the Inhibition Constants of Mixed, Uncompetitive and Non-Competitive Inhibitors. Biochem J 1974, 137:143-4.) and using the SigmaPlot® 11, Enzyme Kinetics Module™ 1.3.

Data set [4] has as its system MCF-10A neoT cells. Nature of the data set: Extracellular DQ-collagen IV degradation, fluorescence intensity in medium. The note with it: Homo sapiens, MCF-10A-neoT, 3 h, DQ-collagen IV 5 µg/ml. Format: cell-based. As for the experimental part: Two experiments were set to differentiate between inhibition of intracellular and extracellular DQ-collagen IV degradation. Inhibition of extracellular DQ-collagen IV degradation was observed by monitoring the fluorescence intensity of degraded DQ-collagen IV in the medium in which MCF-10A neoT cells were grown. 5 × 10^4 MCF-10A neoT cells were plated into wells of a 96-well black plate and were allowed to attach over night. Cells were then incubated with 100 µl PBS containing 5-nitro-8-hydroxyquinoline, CA-074 or CA-074Me (10 µM) and DQ-collagen IV (5 µg/ml) for 3 h. Afterwards, the 80 µl of PBS was transferred into the empty wells and the fluorescence intensity was measured at 495 nm ± 5 nm excitation and 515 nm ± 5 nm emission wavelengths on Tecan Safire^2™. The experiment was performed in 8 parallels and DMSO was used as a control.

SMILES strings stand for the structures.

cathepsin L, sequence (P07711 114-333, species assumed): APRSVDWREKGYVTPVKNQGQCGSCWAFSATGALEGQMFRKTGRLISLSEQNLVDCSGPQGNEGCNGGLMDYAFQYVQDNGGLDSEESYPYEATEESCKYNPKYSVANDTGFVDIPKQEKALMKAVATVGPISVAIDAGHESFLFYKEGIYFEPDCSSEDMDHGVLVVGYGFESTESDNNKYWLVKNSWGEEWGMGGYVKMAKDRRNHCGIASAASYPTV

On to `O=[N+]([O-])c1ccc(O)c2ncccc12` [Compound 1, 5-nitro-8-hydroxyquinoline], for which the “inhibition of DQ-collagen IV degradation (fluorescence microscopy)” value in the data set with MCF-10A neoT cell is “inhibited both intracellular and extracellular DQ-collagen IV degradation”. Further, the “inhibition of tumour invasion in three-dimensional spheroid model” value with MCF-10A neoT cells [1] was “completely abrogated the invasive activity at the edge of the spheroid”. Moreover, the Mechanism of inhibition entry was “competitive” on cathepsin L and “non-competitive” at Cathepsin B (cathepsin B exopeptidase activity). Moreover, the Ki was 175 ± 17.1 µM on cathepsin L (substrate Z-FR-AMC, pH 5.5) and 220 ± 13.3 µM on Cathepsin B (exopeptidase activity, substrate Abz-GIVRAK(Dnp)-OH, pH 5.0, 37°C). The “inhibition of intracellular DQ-collagen IV degradation” value in the data set with MCF-10A neoT cells [2] is “significantly inhibits”. Besides, in the data set on MCF-10A neoT cells [3], the “cytotoxic effect (cell viability, MTS)” value is “non-toxic”. The “inhibits endopeptidase activity more potently than exopeptidase activity” value on Cathepsin B (ratio of exopeptidase Ki to endopeptidase Ki) stood at 5.8 times. In the data set on MCF-10A neoT cells [4], the inhibition at 10 µM was found to be 35.3%.

The record behind these values is EP2353599A1, “8-hydroxyquinolines as inhibitors of cathepsin B” (University of Ljubljana, priority 2010, dated 2011).
